Source: patent publication US20230123334A1, “AMINO LIPID COMPOUND, PREPARATION METHOD THEREFOR, AND APPLICATION THEREOF” (SHENZHEN SHENXIN BIOTECHNOLOGY CO., LTD., priority 2020, published 2023)

System: HEK293 cells
Test: Preliminary screening as mRNA vectors, EGFP mRNA transfection of HEK293 cells
Format: cell-based
Conditions: EGFP mRNA 50 ng per well, 96-well plates; percentage of GFP fluorescent cells relative to total number of cells (Hoechst)
How it was run: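 Screening format: EGFP mRNA transfection (50 ng/well) into HEK293 in 10% FBS-supplemented DMEM. Percent green fluorescent cells, normalised to Hoechst nuclear count, gave the value; Lipofectamine2000 was the reference transfectant.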

SMILES: CCCCCCCCCCCCCCCCCCNc1nc(NCCN2CCOCC2)nc(SCCCCCCCCCCCCCCCCCC)n1 [Compound D2S18N18]
- Absolute mRNA transfection efficiency in HEK293 cells: 0.0%

SMILES: CCCCCCCCCCCCNc1nc(NCCN2CCCCC2)nc(SCCCCCCC)n1 [Compound D4S7N12]
- Absolute mRNA transfection efficiency in HEK293 cells: 0.6%

SMILES: CCCCCCCSc1nc(NCCN2CCN(C)CC2)nc(SCCCCCC)n1 [Compound D5S6S7]
- Absolute mRNA transfection efficiency in HEK293 cells: 10.0%

SMILES: CCCCCCCCCCCCCCSc1nc(NCCCCCCCC)nc(NCC2CCN(C)CC2)n1 [Compound D10S14N8]
- Absolute mRNA transfection efficiency in HEK293 cells: 43.8%

SMILES: CCCCCCCCCCSc1nc(NCCCCCCC)nc(NCCN(C)C)n1 [Compound D1S10N7]
- Absolute mRNA transfection efficiency in HEK293 cells: 0.2%

SMILES: CCCCCCCCCCCCCCCCSc1nc(NCCCN(C)C)nc(SCCCCCC)n1 [Compound D6S6S16]
- Absolute mRNA transfection efficiency in HEK293 cells: 34.4%

SMILES: CCCCCCCCCCCCCCCCCCNc1nc(NCC2CCN(C)CC2)nc(SCCCCCCC)n1 [Compound D10S7N18]
- Absolute mRNA transfection efficiency in HEK293 cells: 45.8%

SMILES: CCCCCCCCCCSc1nc(NCCCN(C)C)nc(SCCCCCCCC)n1 [Compound D6S8S10]
- Absolute mRNA transfection efficiency in HEK293 cells: 70.2%

SMILES: CCCCCCCCCNc1nc(NCCCN2CCN(C)CC2)nc(SCCCCCCCCC)n1 [Compound D9S9N9]
- Absolute mRNA transfection efficiency in HEK293 cells: 76.1%

SMILES: CCCCCCCCCCCCCCCCNc1nc(NCCN2CCOCC2)nc(SCCCCCCCCCC)n1 [Compound D2S10N16]
- Absolute mRNA transfection efficiency in HEK293 cells: 0.6%

SMILES: CCCCCCCCCCCCSc1nc(NCCCCCCCCC)nc(NCCCN2CCOCC2)n1 [Compound D8S12N9]
- Absolute mRNA transfection efficiency in HEK293 cells: 2.3%

SMILES: CCCCCCCCCCCCCCCCCCNc1nc(NCC2CCN(C)CC2)nc(SCCCCCCCCCCCCCC)n1 [Compound D10S14N18]
- Absolute mRNA transfection efficiency in HEK293 cells: 2.6%

SMILES: CCCCCCCCCCCCCCSc1nc(NCCCCCCC)nc(NCCCN(C)C)n1 [Compound D6S14N7]
- Absolute mRNA transfection efficiency in HEK293 cells: 90.8%

SMILES: CCCCCCCCCCSc1nc(NCCCCCC)nc(NCCN2CCOCC2)n1 [Compound D2S10N6]
- Absolute mRNA transfection efficiency in HEK293 cells: 0.1%

SMILES: CCCCCCCCCCCCCNc1nc(NCCN(C)C)nc(SCCCCCCC)n1 [Compound D1S7N13]
- Absolute mRNA transfection efficiency in HEK293 cells: 12.8%

SMILES: CCCCCCCCCCCCCCCCCCSc1nc(NCCCCCCCCCCCC)nc(NCCCN2CCN(C)CC2)n1 [Compound D9S18N12]
- Absolute mRNA transfection efficiency in HEK293 cells: 1.7%

SMILES: CCCCCCCCSc1nc(NCCCN2CCN(C)CC2)nc(SCCCCCCCC)n1 [Compound D9S8S8]
- Absolute mRNA transfection efficiency in HEK293 cells: 53.3%

SMILES: CCCCCCCCCCCCCCSc1nc(NCC2CCN(C)CC2)nc(SCCCCCCC)n1 [Compound D10S7S14]
- Absolute mRNA transfection efficiency in HEK293 cells: 88.7%

SMILES: CCCCCCCCCCCCCCCNc1nc(NCCN(C)C)nc(SCCCCCCCCCCCCCCC)n1 [Compound D1S15N15]
- Absolute mRNA transfection efficiency in HEK293 cells: 0.3%

SMILES: CCCCCCCCCCCCCCCCSc1nc(NCCCCCCCCCCCCC)nc(NCCCN2CCN(C)CC2)n1 [Compound D9S16N13]
- Absolute mRNA transfection efficiency in HEK293 cells: 1.4%

SMILES: CCCCCCCSc1nc(NCCN2CCCCC2)nc(SCCCCCCC)n1 [Compound D4S7S7]
- Absolute mRNA transfection efficiency in HEK293 cells: 13.5%

SMILES: CCCCCCCCCNc1nc(NCCCN2CCN(C)CC2)nc(SCCCCCCC)n1 [Compound D9S7N9]
- Absolute mRNA transfection efficiency in HEK293 cells: 5.2%

SMILES: CCCCCCCCCCCCCNc1nc(NCCN2CCOCC2)nc(SCCCCCC)n1 [Compound D2S6N13]
- Absolute mRNA transfection efficiency in HEK293 cells: 0.2%

SMILES: CCCCCCCCCCCCCCCSc1nc(NCCCCCCC)nc(NCCN(C)C)n1 [Compound D1S15N7]
- Absolute mRNA transfection efficiency in HEK293 cells: 66.1%

SMILES: CCCCCCCCCCCCN(CCCCCCCCCCCC)c1nc(NCCN2CCCCC2)nc(SCCCCCCCCCC)n1 [D4S10^2N12]
- Absolute mRNA transfection efficiency in HEK293 cells: 0.1%

SMILES: CCCCCCCCCCCCCCCCCCSc1nc(NCCN2CCOCC2)nc(SCCCCCC)n1 [Compound D2S6S18]
- Absolute mRNA transfection efficiency in HEK293 cells: 12.1%

SMILES: CCCCCCCCCCCCCCCCCCSc1nc(NCCCCCCCCCCCCCCC)nc(NCCCN2CCOCC2)n1 [Compound D8S18N15]
- Absolute mRNA transfection efficiency in HEK293 cells: 0.0%

SMILES: CCCCCCCCCCCCCCCCCCSc1nc(NCC2CCN(C)CC2)nc(SCCCCCCC)n1 [Compound D10S7S18]
- Absolute mRNA transfection efficiency in HEK293 cells: 90.5%

SMILES: CCCCCCCCCCCCNc1nc(NCCN2CCCC2)nc(SCCCCCCCCCC)n1 [Compound D3S10N12]
- Absolute mRNA transfection efficiency in HEK293 cells: 19.1%

SMILES: CCCCCCCCCCCCCNc1nc(NCCCN2CCOCC2)nc(SCCCCCCCC)n1 [Compound D8S8N13]
- Absolute mRNA transfection efficiency in HEK293 cells: 1.5%

SMILES: CCCCCCCCCCCCCCCSc1nc(NCCCCCC)nc(NCCN2CCCC2)n1 [Compound D3S15N6]
- Absolute mRNA transfection efficiency in HEK293 cells: 33.2%

SMILES: CCCCCCCCCCCCCCCSc1nc(NCCN2CCN(C)CC2)nc(SCCCCCC)n1 [Compound D5S6S15]
- Absolute mRNA transfection efficiency in HEK293 cells: 29.7%

SMILES: CCCCCCCCCCCCCCCSc1nc(NCCCCCCCCC)nc(NCCCN2CCN(C)CC2)n1 [Compound D9S15N9]
- Absolute mRNA transfection efficiency in HEK293 cells: 18.5%

SMILES: CCCCCCCCCCCCCCCCCCSc1nc(NCCCCCCCCCCCCC)nc(NCCN2CCOCC2)n1 [Compound D2S18N13]
- Absolute mRNA transfection efficiency in HEK293 cells: 0.0%

SMILES: CCCCCCCCCCCSc1nc(NCCCCCCC)nc(NCCN2CCCCC2)n1 [Compound D4S11N7]
- Absolute mRNA transfection efficiency in HEK293 cells: 2.3%

SMILES: CCCCCCCCCCCNc1nc(NCCN2CCCCC2)nc(SCCCCCC)n1 [Compound D4S6N11]
- Absolute mRNA transfection efficiency in HEK293 cells: 0.9%

SMILES: CCCCCCCCCCSc1nc(NCCCCCCC)nc(NCCN2CCCCC2)n1 [Compound D4S10N7]
- Absolute mRNA transfection efficiency in HEK293 cells: 0.1%

SMILES: CCCCCCCCCSc1nc(NCCCCCCC)nc(NCCN(C)C)n1 [Compound D1S9N7]
- Absolute mRNA transfection efficiency in HEK293 cells: 0.3%

SMILES: CCCCCCCCCCCNc1nc(NCCN2CCOCC2)nc(SCCCCCC)n1 [Compound D2S6N11]
- Absolute mRNA transfection efficiency in HEK293 cells: 0.8%

SMILES: CCCCCCCCCCCCCNc1nc(NCCN2CCN(C)CC2)nc(SCCCCCCCCCC)n1 [Compound D5S10N13]
- Absolute mRNA transfection efficiency in HEK293 cells: 4.6%

SMILES: CCCCCCCCCCCCCCCSc1nc(NCCCCCCCCC)nc(NCCN(C)C)n1 [Compound D1S15N9]
- Absolute mRNA transfection efficiency in HEK293 cells: 96.3%

SMILES: CCCCCCCCCCCCCCCCCCSc1nc(NCCCN2CCOCC2)nc(N(CCCCCCCCCCCC)CCCCCCCCCCCC)n1 [D8S18^2N12]
- Absolute mRNA transfection efficiency in HEK293 cells: 0.0%

SMILES: CCCCCCCCCCCSc1nc(NCCCCCC)nc(NCCN2CCCC2)n1 [Compound D3S11N6]
- Absolute mRNA transfection efficiency in HEK293 cells: 18.1%

SMILES: CCCCCCCCCCCCSc1nc(NCCN2CCOCC2)nc(SCCCCCCCC)n1 [Compound D2S8S12]
- Absolute mRNA transfection efficiency in HEK293 cells: 1.1%

SMILES: CCCCCCCCSc1nc(NCCN2CCOCC2)nc(SCCCCCCC)n1 [Compound D2S7S8]
- Absolute mRNA transfection efficiency in HEK293 cells: 35.6%

SMILES: CCCCCCCCCCCCCCCSc1nc(NCCCCCCCCCCCCC)nc(NCCN2CCN(C)CC2)n1 [Compound D5S15N13]
- Absolute mRNA transfection efficiency in HEK293 cells: 1.5%

SMILES: CCCCCCCCCCSc1nc(NCCCCCCCCC)nc(NCC2CCN(C)CC2)n1 [Compound D10S10N9]
- Absolute mRNA transfection efficiency in HEK293 cells: 4.2%

SMILES: CCCCCCCCCSc1nc(NCCCCCCCC)nc(NCC2CCN(C)CC2)n1 [Compound D10S9N8]
- Absolute mRNA transfection efficiency in HEK293 cells: 16.3%

SMILES: CCCCCCCCCCCCCCCCNc1nc(NCCCN(C)C)nc(SCCCCCCC)n1 [Compound D6S7N16]
- Absolute mRNA transfection efficiency in HEK293 cells: 44.8%

SMILES: CCCCCCCCCCCCCCCSc1nc(NCCCN2CCN(C)CC2)nc(N(CCCCCCCCCCCC)CCCCCCCCCCCC)n1 [D9S15^2N12]
- Absolute mRNA transfection efficiency in HEK293 cells: 0.4%

SMILES: CCCCCCCCCCCCCCCCCCNc1nc(NCCCN(C)C)nc(SCCCCCCCCCCC)n1 [Compound D6S11N18]
- Absolute mRNA transfection efficiency in HEK293 cells: 14.6%

SMILES: CCCCCCCCCCCSc1nc(NCCCCCCC)nc(NCCN2CCN(C)CC2)n1 [Compound D5S11N7]
- Absolute mRNA transfection efficiency in HEK293 cells: 8.5%

SMILES: CCCCCCCCCCCCCNc1nc(NCCN(C)C)nc(SCCCCCCCCCCC)n1 [Compound D1S11N13]
- Absolute mRNA transfection efficiency in HEK293 cells: 12.6%

SMILES: CCCCCCCCCCCCNc1nc(NCCCN2CCN(C)CC2)nc(SCCCCCCCCCC)n1 [Compound D9S10N12]
- Absolute mRNA transfection efficiency in HEK293 cells: 6.0%

SMILES: CCCCCCCCCCCSc1nc(NCCCN2CCOCC2)nc(SCCCCCCC)n1 [Compound D8S7S11]
- Absolute mRNA transfection efficiency in HEK293 cells: 23.1%

SMILES: CCCCCCCCCCCCNc1nc(NCCCN(C)C)nc(SCCCCCCCCCC)n1 [Compound D6S10N12]
- Absolute mRNA transfection efficiency in HEK293 cells: 25.4%

SMILES: CCCCCCCCCCCCCCCNc1nc(NCCN2CCCCC2)nc(SCCCCCCCC)n1 [Compound D4S8N15]
- Absolute mRNA transfection efficiency in HEK293 cells: 2.6%

SMILES: CCCCCCCCCCCCN(CCCCCCCCCCCC)c1nc(NCCCN(C)C)nc(SCCCCCCCCCCC)n1 [D6S11^2N12]
- Absolute mRNA transfection efficiency in HEK293 cells: 3.2%

SMILES: CCCCCCCCCNc1nc(NCCN2CCCCC2)nc(SCCCCCC)n1 [Compound D4S6N9]
- Absolute mRNA transfection efficiency in HEK293 cells: 1.1%

SMILES: CCCCCCCCCCCCCCCCNc1nc(NCCN2CCCCC2)nc(SCCCCCCCCCCCC)n1 [Compound D4S12N16]
- Absolute mRNA transfection efficiency in HEK293 cells: 1.3%

SMILES: CCCCCCCCCCCCCCCSc1nc(NCCN(C)C)nc(SCCCCCC)n1 [Compound D1S6S15]
- Absolute mRNA transfection efficiency in HEK293 cells: 1.2%

SMILES: CCCCCCCCCCCCN(CCCCCCCCCCCC)c1nc(NCCN(CC)CC)nc(SCCCCCC)n1 [D7S6^2N12]
- Absolute mRNA transfection efficiency in HEK293 cells: 0.2%

SMILES: CCCCCCCCCCCCCCCCNc1nc(NCCN2CCCC2)nc(SCCCCCCCCCC)n1 [Compound D3S10N16]
- Absolute mRNA transfection efficiency in HEK293 cells: 56.7%

SMILES: CCCCCCCCCCCCCCCSc1nc(NCCCCCCC)nc(NCCN2CCCC2)n1 [Compound D3S15N7]
- Absolute mRNA transfection efficiency in HEK293 cells: 80.8%

SMILES: CCCCCCCCCCCCCCCCCCNc1nc(NCCN(CC)CC)nc(SCCCCCCCCCCCCCCCC)n1 [Compound D7S16N18]
- Absolute mRNA transfection efficiency in HEK293 cells: 1.5%

SMILES: CCCCCCCCCCCNc1nc(NCCN2CCCCC2)nc(SCCCCCCCC)n1 [Compound D4S8N11]
- Absolute mRNA transfection efficiency in HEK293 cells: 0.3%

SMILES: CCCCCCCCCSc1nc(NCCCCCCC)nc(NCCCN(C)C)n1 [Compound D6S9N7]
- Absolute mRNA transfection efficiency in HEK293 cells: 1.2%
